Laboratory results taken from patent US8853424B2 (Japan Science and Technology Agency, priority 2008, dated 2014).

Key:
[1] = tested on: Truncated N-terminal huntington 150 Q-EGFP-Neuron 2a cells; test: Measurement of x-Fold (polyglutamine aggregation inhibitory activity); type: cell-based
Description: In the present invention, the polyglutamine aggregation inhibitory activity (x-Fold) can be measured, for example, by the method described in the Example.
The number of the aggregated cells, and the total number of cells were counted by Array Scan V T1 (manufactured by Cellomics, Pittuburg, USA), and the ratio of the aggregated cells to the total number of cells was determined (x-Fold). […]

transglutaminase (TGase) = test: Measurement of TG (TGase inhibitory activity, monodansyl cadaverine / N,N-dimethylcasein fluorescence, FDSS 3000); type: biochemical
How it was run: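 Compound (1 μL of 10 mM stock) added to 0.1 mL reaction: 100 mM HEPES-NaOH pH 7.5, 1 mM CaCl2, 20 μM monodansyl cadaverine, 0.05 mg/mL N,N-dimethylcasein, 5 μg/mL TGase. Rate of fluorescence change at 340 nm measured; DMSO control set to 100; TG50 is the concentration halving activity.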

[2] = ratio of aggregated cells to total number of cells, compound 20 μM, 20 hr, almost 1 without compound, smaller = stronger inhibition
[3] = TGase activity with compound (10 mM, 1 μL in 0.1 ml enzyme reaction solution), DMSO control taken as 100
[4] = polyglutamine aggregation inhibitory activity, Table 1
[5] = TGase inhibitory activity value, Table 1

TGase activity remaining (% of DMSO control = 100) (transglutaminase (TGase); [3])	TGase activity remaining (% of DMSO control = 100) (transglutaminase (TGase); [5])	SMILES	x-Fold [1, 2]	x-Fold [1, 4]	other results
97	97	OB(c1ccc(COCc2ccc(B(O)c3cccc4ccccc34)cc2)cc1)c1cccc2ccccc12 [Example 141, bis(4,4′-(1-naphthylhydroxyboryl)benzyl)ether]	0.92	0.92	
99		Cc1ccc(B(O)c2ccc(COCc3ccc(B(O)c4ccc(C)c(Cl)c4)cc3)cc2)cc1Cl [Example 144, bis(3-chloro-4-methylphenylhydroxyboryl 4-benzyl)ether]	0.87		
97	97	OB(O)c1ccc(F)c(Cl)c1 [Example 145, (3-chloro-4-fluorophenyl)boronic acid]	0.91	0.91	
91	91	Cc1cc(B(OCCN)c2ccccc2)ccc1B(OCCN)c1ccccc1 [Example 146, 1,4-bis(phenyl-2-aminoethoxyboryl) 2-methylbenzene]	1.02	1.02	
68	68	NCCOB(c1ccccc1)c1ccccc1COCc1ccccc1B(OCCN)c1ccccc1 [Example 148, bis(2,2′-(phenyl-2-aminoethoxyboryl)benzyl)ether]	1.00	1.00	
96		FC(F)(F)c1ccc(C(OB(c2ccccc2)c2ccc(COCc3ccc(B(OC(c4ccc(C(F)(F)F)cc4)c4ccccn4)c4ccccc4)cc3)cc2)c2ccccn2)cc1 (stereo not shown) [Example 149, 4,4′-di((phenyl 1-(pyridin-2-yl)-1-trifluoromethylphenylmethoxyboryl)benzyl)ether]	0.99		
2	2	Nc1ccccc1SB(c1ccccc1)c1ccccc1 [Example 150, diphenyl-2-aminophenylthioborane]	0	0	
33	33	NCCSB(c1ccccc1)c1ccccc1 [Example 151, 2-aminoethylthiodiphenylborane]	0.87	0.87	
		CN(C)CCOB(c1ccccc1)c1ccc(COCc2ccc(B(OCCN(C)C)c3ccccc3)cc2)cc1 [Example 152, di(4,4′-phenyldimethylaminoethoxyboryl)benzylether]	1.07		x-Fold ([1]; polyglutamine aggregation inhibitory activity, Table 1, listed as 1073): 1.07; TGase activity remaining (% of DMSO control = 100) (transglutaminase (TGase); TGase inhibitory activity value, Table 1, listed as 1073): 54
105	105	NCCNCCOB(c1ccccc1)c1ccccc1 [Example 154, diphenyl 2-aminoethylaminoethyl borinate]	0.96	0.96-	
100		FC(F)(F)c1ccc(B(OCc2ccccn2)c2ccc(C(F)(F)F)cc2)cc1 [Example 155, di(trifluoromethylphenyl) 2-pyridinomethylborinate]	1.02		
102	102	CCCCB(CCCC)OC(=O)C(C)N (stereo not shown) [Example 159, dibutyl(alanine-O,N)borane]	0.96	0.96	
88	88	Cc1ccc(Cl)cc1B(OC(=O)C(N)CCCNC(N)=O)c1cc(Cl)ccc1C (stereo not shown) [Example 160, di(3-chloro-6-methyl-phenyl)(citrullinate-O,N)borane]	1.02	1.02	
109		Cc1ccc(B(OCC2CCCCN2C)c2ccc(C)c(Cl)c2)cc1Cl (stereo not shown) [Example 163, di(3-chloro-4-methylphenyl)N-methylpiperidinomethylborinate]	1.00		
21	21	COCOCc1ccc(B(OCCN(C)C)c2ccc(Oc3ccc(B(OCCN(C)C)c4ccccc4)cc3)cc2)cc1 [Example 167, (4-(phenyl-dimethylaminoethoxyboryl)phenyl)-(4′-(methoxymethoxymethylphenyl-dimethylaminoethoxyboryl)phenyl)ether]	0.71	0.71	
35	35	CNCCOB(c1ccccc1)c1ccc(Oc2ccc(B(OCCNC)c3ccc(COCOC)cc3)cc2)cc1 [Example 168, (4-(phenyl-N-methylaminoethoxyboryl)phenyl)-(4′-(methoxymethoxymethylphenyl-N-methylaminoethoxyboryl)phenyl)ether]	0.72	0.72	
98		Cc1ccc(Cl)cc1B(O)c1cc(Cl)ccc1C [Example 171, di(3-chloro-6-methylphenyl)borinic acid]	0.71		
122	122	c1ccc(B2OCCN3CCN(CCOB(c4ccccc4)c4cccc(c4)COCc4cccc2c4)CC3)cc1 [Example 173, (3,3′-(phenylpiperazino-O,O-ethoxyboryl)benzyl)ether]	1.06	1.06	
103		NCC(N)C(=O)OB(c1ccccc1)c1ccccc1 (stereo not shown) [Example 174, diphenyl(2,3-diaminopropionate-O,N)borane]	0.99		x-Fold ([1]; polyglutamine aggregation inhibitory activity, Table 1, listed as 2031-4): 0.99; TGase activity remaining (% of DMSO control = 100) (transglutaminase (TGase); TGase inhibitory activity value, Table 1, listed as 2031-4): 103
142		NCCC(N)C(=O)OB(c1ccccc1)c1ccccc1 (stereo not shown) [Example 178]	0.89		x-Fold ([1]; polyglutamine aggregation inhibitory activity, Table 1, listed as 2039): 0.89; TGase activity remaining (% of DMSO control = 100) (transglutaminase (TGase); TGase inhibitory activity value, Table 1, listed as 2039): 142
127		NCCCC(N)C(=O)OB(c1ccccc1)c1ccccc1 (stereo not shown) [Example 179, diphenyl(2,5-diaminopentanate-O,N)borane]	0.99		x-Fold ([1]; polyglutamine aggregation inhibitory activity, Table 1, listed as 2044): 0.99; TGase activity remaining (% of DMSO control = 100) (transglutaminase (TGase); TGase inhibitory activity value, Table 1, listed as 2044): 127
35	35	Cc1ccc(B(OC(=O)c2ccccc2N)c2ccc(C)c(Cl)c2)cc1Cl [Example 180, di(3-chloro-4-methylphenyl)(anthranate-O,N)borane]	0.98	0.98	
54		NCCOB(c1ccc(C(F)(F)F)cc1)c1ccc(C(F)(F)F)cc1 [Example 181, di(trifluoromethylphenyl) 2-aminoethylborinate]	0.69		

SMILES	TGase activity remaining (% of DMSO control = 100) (transglutaminase (TGase); [3])	TGase activity remaining (% of DMSO control = 100) (transglutaminase (TGase); [5])	x-Fold [1, 2]	x-Fold [1, 4]	other results
Cc1cc(B(O)c2ccc(COCc3ccc(B(O)c4ccc(Cl)c(C)c4)cc3)cc2)ccc1Cl [Example 139, bis(4-chloro-3-methylphenylhydroxyboryl 4-benzyl)ether]	122		0.88		x-Fold ([1]; polyglutamine aggregation inhibitory activity, Table 1, listed as 611): 0.88; TGase activity remaining (% of DMSO control = 100) (transglutaminase (TGase); TGase inhibitory activity value, Table 1, listed as 611): 122
OB(c1ccccc1)c1ccc(-c2ccc(B(O)c3ccccc3)cc2)cc1 [Example 140, 4,4′-phenylhydroxyboryl 4-biphenyl]	−72	−72	0.85	0.85	
OB(c1ccc(F)cc1)c1ccc(COCc2ccc(B(O)c3ccc(F)cc3)cc2)cc1 [Example 142, bis(4-fluorophenylhydroxyboryl 4-benzyl)ether]	88	88	0.24	0.24	
OB(c1ccc(COCc2ccc(B(O)c3ccc(C(F)(F)F)cc3)cc2)cc1)c1ccc(C(F)(F)F)cc1 [Example 143, bis(4-trifluoromethylphenylhydroxyboryl 4-benzyl)ether]	118	118	0.90	0.90	
CCN(CC)CC.CN(C)c1ccc2c(-c3ccc(NC(=S)NCC(N)C(=O)OB(c4ccccc4)c4ccccc4)cc3C(=O)[O-])c3ccc(=[N+](C)C)cc-3oc2c1 (stereo not shown) [Example 175, diphenyl(tetramethylrhodamine 2,3-diaminopropionate-O,N)borane]	5	5	0.89	0.89	
CCN(CC)CC.CN(C)c1ccc2c(-c3ccc(NC(=S)NCCCCC(N)C(=O)OB(c4ccccc4)c4ccccc4)cc3C(=O)[O-])c3ccc(=[N+](C)C)cc-3oc2c1 (stereo not shown) [Example 176, diphenyl(tetramethylrhodamine 2,6-diaminocapronate-O,N)borane]	47	47	1.06	1.06	
